Laboratory results published in patent US7196110B2, “N-substituted tricyclic 3-aminopyrazoles as inhibitors for the treatment of cell proliferative disorders” (Janssen Phamaceutica N.V., priority 2002, dated 2007).
pIC50: −log10 of the molar value.

Tests used:
c-Abl kinase = c-Abl kinase (Abelson murine leukemia virus, UniProt P00521); experiment: Inhibition of c-Abl kinase activity (cell-free, Abl peptide substrate, 33P Flashplate); assay type: biochemical; details: IC50 for the c-Abl kinase activity
Procedure: The inhibitory activity of compounds within the scope of the invention on c-Abl kinase activity was tested according to the following procedure.
• 1. 10× Kinase Buffer [500 mM Tris-HCl pH=8, 100 mM MgCl2, 1 mM Na3VO4] • 2. 10 mM DTT [final concentration 1 mM] • 3. 10 mM ATP [final concentration 5 μM] (Gibco, Cat No:18330-019, Carlsbad, Calif.) • 4. ^33P-γ-ATP [NEG-602H; 2000–3000 Ci/mmol], 2 μCuries per well at 10 μCi/μl (0.2 μl/well) • 5. Abl enzyme (New England Biolabs, Cat No. P6050L, Beverly, Mass.) at 100 Units/μl use 10 Units/well (0.1 μl/well) • 6. Enzyme Dilution Buffer [50 mM Tris-HCl pH=8.0, 0.1% BSA] • 7. Wash/Stop Buffer [PBS+100 mM EDTA] • 8. NEN Streptavidin Flashplates (New England Nuclear, Cat No. SMP-103, Boston, Mass.). • 9. Abl Peptide Substrate (Biotin-[…]-amide) at 1 mM in 50 mM Tris-HCL pH=8.0. (Use at 1.0 μM). Procedure
Reagents were first mixed according to the following regimen:
The above reaction mixture was dispensed into each well of a Flashplate at 70 μl/well. To test the effect of a compound on Abl kinase activity, the test compound either in a fixed concentration or in serially diluted concentrations in 100% DMSO was added to appropriate wells at 1 μl/well.
Enzyme Abl was diluted in enzyme dilution buffer as following:
The kinase reaction was started by adding 30 μl of diluted Abl enzyme solution to each well on the Flashplate containing hot ATP (2 μCi/well) and Abl peptide substrate (at 1 μM final conc.), except wells of column 12 rows E and F, which were used to calculate the plate background. The Flashplate was swirled to mix and was incubated at 30° C. for 60 minutes. Then, the reaction mixture was discarded and the Flashplate was washed 3 times each with 200 μL Wash/Stop Buffer. Subsequently, each well on the Flashplate was filled with 200 μl of Wash/Stop buffer. The amount of ^33P retained in each well was measured using a Packard TopCount after the plate was sealed with a transparent plate sealer.
In order to test the potency of inhibition of present compounds, an IC50 for an individual compound was measured using the above procedure. As used herein, the IC50 for c-Abl kinase activity refers to the concentration of an inhibitor at which the activity of c-Abl kinase is reduced by one-half as compared with reactions containing no inhibitor.

[1] = target: T1, PDGF-receptor beta enzyme comprising the tyrosine kinase domain (Homo sapiens, UniProt P09619); experiment: Inhibition of PDGF-receptor kinase activity (cell-free, PLC1 peptide, 33P Flashplate); assay type: biochemical; details: PDGF-R kinase activity; for inhibition at 10 µM: compound at 10 uM, read-out: Percent Inhibition @ 10 uM; for pIC50: read-out: IC50
T1 construct: from amino acid 545 to 1106 of GenBank Access NO: AAA36427
Summary of the method: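 The IC50 is the inhibitor level halving kinase activity relative to inhibitor-free wells, measured as 33P captured on a streptavidin-bound biotin-PLC1 peptide. The reaction ran 60 min at 30 °C in pH 8 Tris buffer with 1 mM DTT, 5 μM ATP and the 545–1106 kinase-domain enzyme.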

Sequence of c-Abl kinase (P00521 115-385): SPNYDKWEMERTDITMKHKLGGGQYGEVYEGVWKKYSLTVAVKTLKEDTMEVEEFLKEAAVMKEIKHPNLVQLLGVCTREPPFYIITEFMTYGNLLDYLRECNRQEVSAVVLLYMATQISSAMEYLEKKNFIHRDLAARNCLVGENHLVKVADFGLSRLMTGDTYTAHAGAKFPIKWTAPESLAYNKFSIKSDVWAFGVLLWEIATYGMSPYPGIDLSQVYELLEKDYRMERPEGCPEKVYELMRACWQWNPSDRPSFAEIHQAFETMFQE
T1 sequence (P09619 545-1106): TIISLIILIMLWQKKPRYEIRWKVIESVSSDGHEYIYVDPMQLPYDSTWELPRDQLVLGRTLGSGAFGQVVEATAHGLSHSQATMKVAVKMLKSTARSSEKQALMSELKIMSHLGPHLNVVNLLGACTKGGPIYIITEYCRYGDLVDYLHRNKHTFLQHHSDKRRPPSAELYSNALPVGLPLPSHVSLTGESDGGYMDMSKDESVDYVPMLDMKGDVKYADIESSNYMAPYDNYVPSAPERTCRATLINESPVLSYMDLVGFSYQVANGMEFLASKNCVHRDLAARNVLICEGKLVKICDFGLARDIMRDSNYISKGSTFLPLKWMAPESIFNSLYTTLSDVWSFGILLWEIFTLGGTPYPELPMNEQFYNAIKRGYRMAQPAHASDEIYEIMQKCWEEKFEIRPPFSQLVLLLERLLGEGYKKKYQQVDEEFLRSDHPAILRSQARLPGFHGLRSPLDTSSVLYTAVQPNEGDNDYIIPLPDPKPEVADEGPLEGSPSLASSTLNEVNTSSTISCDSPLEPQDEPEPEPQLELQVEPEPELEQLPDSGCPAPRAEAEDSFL

Structure (SMILES)	pIC50 (c-Abl kinase)	inhibition at 10 µM [1] [%]	pIC50 [1]
COCCCOc1ccc2c(c1)Cc1c-2n[nH]c1Nc1ccccc1 [Compound 140, [6-(3-Methoxy-propoxy)-2,4-dihydro-indeno[1,2-c]pyrazol-3-yl]-phenyl-amine]	5.85	56.5	7.86
COc1cccc(Nc2[nH]nc3c2Cc2cc(OCCCN4CCCC4)c(OC)cc2-3)c1 [Compound 156, (3-Methoxy-phenyl)-[7-methoxy-6-(3-pyrrolidin-1-yl-propoxy)-2,4-dihydro-indeno[1,2-c]pyrazol-3-yl]-amine]	7.05	87.5	9.00
CN(C)CCCOc1ccc2c(c1)Cc1c-2n[nH]c1Nc1cccc(F)c1 [Compound 160, [6-(3-Dimethylamino-propoxy)-2,4-dihydro-indeno[1,2-c]pyrazol-3-yl]-(3-fluoro-phenyl)-amine]	5.99	94.5	7.23
COc1ccc2c(c1)-c1n[nH]c(Nc3ccc(F)cc3)c1C2 [Compound 170, (4-Fluoro-phenyl)-(7-methoxy-2,4-dihydro-indeno[1,2-c]pyrazol-3-yl)-amine]	7.12	95.5	7.57
COc1ccc2c(c1)-c1n[nH]c(Nc3cccc(F)c3)c1C2 [Compound 172, (3-Fluoro-phenyl)-(7-methoxy-2,4-dihydro-indeno[1,2-c]pyrazol-3-yl)-amine]	7.08	55	7.88
COc1cc2c(cc1OCCCN1CCOCC1)Cc1c-2n[nH]c1Nc1ccc(F)c(Cl)c1 [Compound 179, (3-Chloro-4-fluoro-phenyl)-[7-methoxy-6-(3-morpholin-4-yl-propoxy)-2,4-dihydro-indeno[1,2-c]pyrazol-3-yl]-amine]	6.06	92	7.15
COc1cc2c(cc1OCCCN1CCCC1)Cc1c-2n[nH]c1Nc1cccc(F)c1 [Compound 180, (3-Fluoro-phenyl)-[7-methoxy-6-(3-pyrrolidin-1-yl-propoxy)-2,4-dihydro-indeno[1,2-c]pyrazol-3-yl]-amine]	7.09	98.5	7.88
COc1cc2c(cc1OCCCN1CCCC1)Cc1c-2n[nH]c1Nc1ccc(F)c(Cl)c1 [Compound 181, (3-Chloro-4-fluoro-phenyl)-[7-methoxy-6-(3-pyrrolidin-1-yl-propoxy)-2,4-dihydro-indeno[1,2-c]pyrazol-3-yl]-amine]	7.25	74.5	7.81
Cc1ccc2c(c1)-c1n[nH]c(Nc3cccc(F)c3)c1C2 [Compound 182, (3-Fluoro-phenyl)-(7-methyl-2,4-dihydro-indeno[1,2-c]pyrazol-3-yl)-amine]	7.03	107	8.30
Cc1ccc2c(c1)-c1n[nH]c(Nc3cc(F)ccc3F)c1C2 [Compound 185, (2,5-Difluoro-phenyl)-(7-methyl-2,4-dihydro-indeno[1,2-c]pyrazol-3-yl)-amine]	6.18	84	7.30
Clc1ccc2c(c1)Cc1c-2n[nH]c1Nc1cccnc1 [Compound 188, (6-Chloro-2,4-dihydro-indeno[1,2-c]pyrazol-3-yl)-pyridin-3-yl-amine]	5.85	74	7.36
COc1cccc(Nc2[nH]nc3c2Cc2cc(Cl)ccc2-3)c1 [Compound 190, (6-Chloro-2,4-dihydro-indeno[1,2-c]pyrazol-3-yl)-(3-methoxy-phenyl)-amine]	7.16	80	7.40
COc1cc2c(cc1OCCCN(C)C)Cc1c-2n[nH]c1Nc1cccc(F)c1 [Compound 199, [6-(3-Dimethylamino-propoxy)-7-methoxy-2,4-dihydro-indeno[1,2-c]pyrazol-3-yl]-(3-fluoro-phenyl)-amine]	7.57	83	8.23
COc1cc2c(cc1OCCCN(C)C)Cc1c-2n[nH]c1Nc1ccc(F)c(Cl)c1 [Compound 200, (3-Chloro-4-fluoro-phenyl)-[6-(3-dimethylamino-propoxy)-7-methoxy-2,4-dihydro-indeno[1,2-c]pyrazol-3-yl]-amine]	7.70	87	8.70
Fc1ccc(Nc2[nH]nc3c2Cc2cc(F)ccc2-3)cc1 [Compound 201, (6-Fluoro-2,4-dihydro-indeno[1,2-c]pyrazol-3-yl)-(4-fluoro-phenyl)-amine]	6.66	96	8.05
Fc1ccc2c(c1)Cc1c-2n[nH]c1Nc1ccc(F)c(Cl)c1 [Compound 202, (3-Chloro-4-fluoro-phenyl)-(6-fluoro-2,4-dihydro-indeno[1,2-c]pyrazol-3-yl)-amine]	5.58	77	7.91
COc1ccc(OC)c(Nc2[nH]nc3c2Cc2cc(F)ccc2-3)c1 [Compound 203, (2,5-Dimethoxy-phenyl)-(6-fluoro-2,4-dihydro-indeno[1,2-c]pyrazol-3-yl)-amine]	6.80	86	7.80
COc1cc(Nc2[nH]nc3c2Cc2cc(F)ccc2-3)cc(OC)c1 [Compound 204, (3,5-Dimethoxy-phenyl)-(6-fluoro-2,4-dihydro-indeno[1,2-c]pyrazol-3-yl)-amine]	6.78	90	7.42
COc1ccc(Nc2[nH]nc3c2Cc2cc(F)ccc2-3)cc1OC [Compound 205, (3,4-Dimethoxy-phenyl)-(6-fluoro-2,4-dihydro-indeno[1,2-c]pyrazol-3-yl)-amine]	6.48	86	7.33
COc1cc2c(cc1OC)-c1n[nH]c(Nc3cc(F)cc(F)c3)c1C2 [Compound 207, (3,5-Difluoro-phenyl)-(6,7-dimethoxy-2,4-dihydro-indeno[1,2-c]pyrazol-3-yl)-amine]	7.21	89	8.00
COc1cc2c(cc1OC)-c1n[nH]c(Nc3cccc(SC)c3)c1C2 [Compound 208, (6,7-Dimethoxy-2,4-dihydro-indeno[1,2-c]pyrazol-3-yl)-(3-methylsulfanyl-phenyl)-amine]	8.05	82	8.52
CCc1cccc(Nc2[nH]nc3c2Cc2cc(OC)c(OC)cc2-3)c1 [Compound 209, (6,7-Dimethoxy-2,4-dihydro-indeno[1,2-c]pyrazol-3-yl)-(3-ethyl-phenyl)-amine]	8.15	99	7.48
COc1cc2c(cc1OC)-c1n[nH]c(Nc3ccc(OCc4ccccc4)cc3)c1C2 [Compound 218, (4-Benzyloxy-phenyl)-(6,7-dimethoxy-2,4-dihydro-indeno[1,2-c]pyrazol-3-yl)-amine]	6.36	81	5.70
COc1cc2c(cc1OCCCn1ccnc1)Cc1c-2n[nH]c1Nc1cccc(F)c1 [Compound 226, (3-Fluoro-phenyl)-[6-(3-imidazol-1-yl-propoxy)-7-methoxy-2,4-dihydro-indeno[1,2-c]pyrazol-3-yl]-amine]	6.61	102	8.52
